Source: patent US20070197957A1, “Implantable sensors, implantable pumps and anti-scarring drug combinations” (priority 2005, published 2007)

What was measured:
[1] = cited from earlier work; for solubility in alcohol / ethanol: alcohol or ethanol
C. glabrata = assay: antifungal activity against C. glabrata; type: cell-based
[2] = system: P. aeruginosa PAE/K799 H187; assay: MIC by microtitre broth dilution; type: cell-based; settings: Mueller Hinton broth, 37° C., 24 h, aerobic
Method: (§1) MIC assays were conducted essentially as described by Amsterdam, D. 1996, “Susceptibility testing of antimicrobials in liquid media”, p. 52-111, in Loman, V., ed. Antibiotics in laboratory medicine, 4th ed. Williams and Wilkins, Baltimore, Md.

S. aureus ATCC25923 C622 = assay: MIC by microtitre broth dilution; type: cell-based; settings: Mueller Hinton broth, 37° C., 24 h, aerobic
Method: as §1

S. epidermidis C621 = assay: MIC by microtitre broth dilution; type: cell-based; settings: Mueller Hinton broth, 37° C., 24 h, aerobic
Method: as §1

S. pyogenes C721 = assay: MIC by microtitre broth dilution; type: cell-based; settings: Todd Hewitt broth, 37° C., 24 h, aerobic
Method: as §1

E. coli UB1005 C498 = assay: MIC by microtitre broth dilution; type: cell-based; settings: Mueller Hinton broth, 37° C., 24 h, aerobic
Method: as §1

[3] = system: K. pneumoniae ATCC13883 C238; assay: MIC by microtitre broth dilution; type: cell-based; settings: Mueller Hinton broth, 37° C., 24 h, aerobic
Method: as §1

[4] = system: phosphatases of regenerating liver (PRL); settings: cited from earlier work
endo-exonuclease = settings: cited from earlier work
[5] = target: protein tyrosine phosphatase 1B (PTP1B) (Homo sapiens, UniProt P18031); settings: cited from earlier work
Chain of protein tyrosine phosphatase 1B (PTP1B) (P18031 whole entry): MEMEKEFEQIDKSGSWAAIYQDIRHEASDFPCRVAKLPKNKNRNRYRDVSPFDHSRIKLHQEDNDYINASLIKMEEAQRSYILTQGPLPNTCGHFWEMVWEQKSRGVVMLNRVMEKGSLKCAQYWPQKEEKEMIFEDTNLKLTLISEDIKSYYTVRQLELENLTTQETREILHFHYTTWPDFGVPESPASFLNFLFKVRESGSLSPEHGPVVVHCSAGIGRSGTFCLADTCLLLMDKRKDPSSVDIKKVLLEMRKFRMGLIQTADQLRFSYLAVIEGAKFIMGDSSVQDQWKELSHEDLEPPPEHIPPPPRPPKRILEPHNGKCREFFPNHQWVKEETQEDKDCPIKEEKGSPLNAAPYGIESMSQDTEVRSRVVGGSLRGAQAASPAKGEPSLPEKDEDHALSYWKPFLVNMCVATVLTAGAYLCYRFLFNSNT

[6] = potentiation of immunosuppressive agents

Row | SMILES | Minimum inhibitory concentration, P. aeruginosa PAE/K799 H187 Wt Gram− [2] | Minimum inhibitory concentration, S. aureus ATCC25923 C622 wt Gram+ (S. aureus ATCC25923 C622) | Minimum inhibitory concentration, S. epidermidis C621 wt Gram+ (S. epidermidis C621) | Minimum inhibitory concentration, S. pyogenes C721 wt Gram+ (S. pyogenes C721) | Minimum inhibitory concentration, E. coli UB1005 C498 wt Gram− (E. coli UB1005 C498) | Minimum inhibitory concentration, K. pneumoniae ATCC13883 C238 wt Gram− [3] | further results
1 | NC(=O)c1ncn([C@@H]2O[C@H](CO)[C@@H](O)[C@H]2O)n1 [Ribavirin, ribavirin] | – | – | – | – | – | – | solubility in alcohol / ethanol [1]: only slightly soluble
2 | CN(C/C=C/C#CC(C)(C)C)Cc1cccc2ccccc12.Cl [terbinafine] | – | – | – | – | – | – | enhancement of antifungal activity by a manganese compound (C. glabrata): enhances
3 | OC(Cn1cncn1)(Cn1cncn1)c1ccc(F)cc1F [fluconazole] | – | – | – | – | – | – | enhancement of antifungal activity by a manganese compound (C. glabrata): enhances
4 | CC[C@@]1(O)C(=O)OCc2c1cc1n(c2=O)Cc2cc3ccccc3nc2-1 [camptothecin] | N | N | 10^−4 Molar | N | N | N | –
5 | COc1cccc2c1C(=O)c1c(O)c3c(c(O)c1C2=O)C[C@@](O)(C(=O)CO)C[C@@H]3O[C@H]1C[C@H](N)[C@H](O)[C@H](C)O1 [doxorubicin] | 10^−5 Molar | 10^−5 Molar | 10^−6 Molar | 10^−7 Molar | 10^−4 Molar | 10^−6 Molar | –
6 | Sc1ncc2[nH]cnc2n1 [2-mercaptopurine] | N | N | N | N | N | N | –
7 | CC[C@H](C)C[C@H](C)CCCCCCCCC(=O)N[C@H]1C[C@@H](O)[C@@H](NCCN)NC(=O)[C@@H]2[C@@H](O)CCN2C(=O)[C@H]([C@H](O)CCN)NC(=O)[C@H]([C@H](O)[C@@H](O)c2ccc(O)cc2)NC(=O)[C@@H]2C[C@@H](O)CN2C(=O)[C@H]([C@@H](C)O)NC1=O [caspofungin] | – | – | – | – | – | – | enhancement of antifungal activity by a manganese compound (C. glabrata): enhances
8 | N=C(N)c1ccc(OCCCCCOc2ccc(C(=N)N)cc2)cc1 [pentamidine] | – | – | – | – | – | – | inhibition of oncogenic phosphatases of regenerating liver (PRL) [4]: potent inhibitor; inhibition of endo-exonuclease activity (endo-exonuclease): inhibit; inhibition of PTP1B [5]: effective inhibitor
9 | CNCCCC12CCC(c3ccccc31)c1ccccc12 [maprotiline] | – | – | – | – | – | – | effect on potency of an immunosuppressive agent (e.g. cyclosporine) [6]: increases the potency
10 | CN(C)C(=O)C(CCN1CCC(O)(c2ccc(Cl)cc2)CC1)(c1ccccc1)c1ccccc1 [Loperamide] | – | – | – | – | – | – | effect on potency of an immunosuppressive agent (e.g. cyclosporine) [6]: increase the potency
11 | O=c1[nH]cc(F)c(=O)[nH]1 [5-fluorouracil] | 10^−5 Molar | 10^−7 Molar | 10^−7 Molar | 10^−4 Molar | 10^−6 Molar | 10^−6 Molar | –
12 | Nc1ncnc2c1ccn2[C@@H]1O[C@H](CO)[C@@H](O)[C@H]1O [tubercidin] | N | N | N | N | N | N | –
13 | Nc1ccc(/N=N/c2ccccc2)c(N)n1 [Phenazopyridine, phenazopyridine] | – | – | – | – | – | – | solubility in alcohol / ethanol [1]: slightly soluble in water and alcohol; solubility in water ([1]; water): slightly soluble in water and alcohol
14 | Nc1ccn([C@@H]2O[C@H](CO)[C@@H](O)[C@@H]2O)c(=O)n1 [Cytarabine, cytarabine] | N | N | N | N | N | N | –
15 | CCC(C)n1ncn(-c2ccc(N3CCN(c4ccc(OC[C@H]5CO[C@](Cn6cncn6)(c6ccc(Cl)cc6Cl)O5)cc4)CC3)cc2)c1=O (mixture of isomers) [itraconazole] | – | – | – | – | – | – | enhancement of antifungal activity by a manganese compound (C. glabrata): enhances
16 | CN(Cc1cnc2nc(N)nc(N)c2n1)c1ccc(C(=O)N[C@@H](CCC(=O)O)C(=O)O)cc1 [methotrexate] | N | 10^−5 Molar | N | 10^−6 Molar | N | 10^−6 Molar | –
17 | Sc1ncnc2nc[nH]c12 [6-mercaptopurine] | N | N | N | N | N | N | –
18 | CCN(CC)C(C)CN1c2ccccc2Sc2ccccc21 (centres unmarked) [Ethopropazine, ethopropazine] | – | – | – | – | – | – | effect on potency of an immunosuppressive agent (e.g. cyclosporine) [6]: increases the potency
19 | NC(=O)NO [hydroxyurea] | 10^−4 Molar | N | N | 10^−4 Molar | N | N | –
20 | COc1cc([C@@H]2c3cc4c(cc3[C@@H](O[C@@H]3O[C@@H]5CO[C@@H](C)O[C@H]5[C@H](O)[C@H]3O)[C@H]3COC(=O)[C@H]23)OCO4)cc(OC)c1O [etoposide] | N | 10^−5 Molar | 10^−6 Molar | 10^−5 Molar | N | 10^−5 Molar | –
21 | N.N.[Cl][Pt][Cl] [cisplatin] | 10^−4 Molar | N | N | N | N | N | –
22 | Oc1cc(Cl)ccc1Oc1ccc(Cl)cc1Cl [triclosan] | – | – | – | – | – | – | effect on potency of an immunosuppressive agent (e.g. cyclosporine) [6]: increases the potency
23 | O=C1c2c(O)ccc(O)c2C(=O)c2c(NCCNCCO)ccc(NCCNCCO)c21 [mitoxantrone] | 10^−5 Molar | 10^−5 Molar | 10^−5 Molar | 10^−6 Molar | 10^−5 Molar | 10^−6 Molar | –
